{"source": "patent US20260057961A1", "about": "“CHROMOSOME 9P24 LOSS AND GAIN PREDICTS RESISTANCE AND BENEFIT OF IMMUNE CHECKPOINT INHIBITORS” (THE REGENTS OF THE UNIVERSITY OF CALIFORNIA, priority 2022, published 2026)", "origin": "cited, not measured here", "key": {"HNSC [1]": {"system": "HNSC", "details": "recurrent/metastatic setting after platinum failure"}, "HNSC [2]": {"system": "HNSC"}}, "data": [{"substance": "nivolumab", "values": [{"measurement": "overall survival compared to chemotherapy or cetuximab", "setting": "HNSC [1]", "value": "improved overall survival"}]}, {"substance": "pembrolizumab", "values": [{"measurement": "overall survival compared to chemotherapy or cetuximab", "setting": "HNSC [1]", "value": "improved overall survival"}, {"measurement": "overall survival compared to chemotherapy", "setting": "HNSC [2]; pembrolizumab alone, approximately 20% of patients, with no PD-L1 expression", "value": "worse"}, {"measurement": "survival versus platinum/5FU/cetuximab", "setting": "HNSC [2]; pembrolizumab monotherapy, patients whose tumors expressed PD-L1 protein by immunohistochemistry", "value": "improved survival"}]}]}
